Tests used:
[1] = molecular target: T1, Interleukin-1 receptor-associated kinase 4 (Homo sapiens) (UniProt Q9NWZ3); test: Inhibition of human IRAK4 catalytic domain expressed in baculovirus assessed as substrate phosphorylation using fluorescence-labelled peptides as substrate at 0.06 uM after 90 mins by microfluidic peptide phosphorylation assay
T1 sequence (whole entry): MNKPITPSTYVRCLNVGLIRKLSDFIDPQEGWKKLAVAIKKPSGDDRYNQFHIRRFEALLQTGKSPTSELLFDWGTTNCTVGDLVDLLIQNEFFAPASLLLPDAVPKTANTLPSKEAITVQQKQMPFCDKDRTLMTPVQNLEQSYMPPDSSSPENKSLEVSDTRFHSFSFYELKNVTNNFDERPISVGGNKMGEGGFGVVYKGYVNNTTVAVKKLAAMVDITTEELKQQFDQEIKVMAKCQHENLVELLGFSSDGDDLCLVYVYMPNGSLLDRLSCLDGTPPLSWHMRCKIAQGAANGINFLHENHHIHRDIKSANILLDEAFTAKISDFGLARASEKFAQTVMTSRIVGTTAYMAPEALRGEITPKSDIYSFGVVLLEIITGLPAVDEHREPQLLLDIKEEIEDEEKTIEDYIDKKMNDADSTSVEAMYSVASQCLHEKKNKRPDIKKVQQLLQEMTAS

[2] = molecular target: T2, Testis-specific serine/threonine-protein kinase 1 (Homo sapiens) (UniProt Q9BXA7); test: Inhibition of human full length TSSK1 expressed in baculovirus assessed as substrate phosphorylation using fluorescence-labelled peptides as substrate at 0.06 uM after 90 mins by microfluidic peptide phosphorylation assay
T2 sequence (whole entry): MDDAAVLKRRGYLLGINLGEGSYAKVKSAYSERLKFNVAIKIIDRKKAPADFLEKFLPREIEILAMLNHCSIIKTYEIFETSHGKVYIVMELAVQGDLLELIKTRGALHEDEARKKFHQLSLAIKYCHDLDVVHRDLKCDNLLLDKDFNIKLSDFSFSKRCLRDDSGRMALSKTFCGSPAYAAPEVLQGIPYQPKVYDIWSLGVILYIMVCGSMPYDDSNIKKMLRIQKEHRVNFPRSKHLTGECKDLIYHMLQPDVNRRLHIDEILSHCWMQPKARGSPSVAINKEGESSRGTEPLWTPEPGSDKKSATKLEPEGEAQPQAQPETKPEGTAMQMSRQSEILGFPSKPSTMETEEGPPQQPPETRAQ

[3] = molecular target: Ribosomal protein S6 kinase alpha-3 (Homo sapiens) (UniProt P51812); test: Inhibition of human full length RSK2 expressed in baculovirus assessed as substrate phosphorylation using fluorescence-labelled peptides as substrate at 9 uM after 90 mins by microfluidic peptide phosphorylation assay
Ribosomal protein S6 kinase alpha-3 (Homo sapiens), sequence (P51812 whole entry, the tested form may be a part): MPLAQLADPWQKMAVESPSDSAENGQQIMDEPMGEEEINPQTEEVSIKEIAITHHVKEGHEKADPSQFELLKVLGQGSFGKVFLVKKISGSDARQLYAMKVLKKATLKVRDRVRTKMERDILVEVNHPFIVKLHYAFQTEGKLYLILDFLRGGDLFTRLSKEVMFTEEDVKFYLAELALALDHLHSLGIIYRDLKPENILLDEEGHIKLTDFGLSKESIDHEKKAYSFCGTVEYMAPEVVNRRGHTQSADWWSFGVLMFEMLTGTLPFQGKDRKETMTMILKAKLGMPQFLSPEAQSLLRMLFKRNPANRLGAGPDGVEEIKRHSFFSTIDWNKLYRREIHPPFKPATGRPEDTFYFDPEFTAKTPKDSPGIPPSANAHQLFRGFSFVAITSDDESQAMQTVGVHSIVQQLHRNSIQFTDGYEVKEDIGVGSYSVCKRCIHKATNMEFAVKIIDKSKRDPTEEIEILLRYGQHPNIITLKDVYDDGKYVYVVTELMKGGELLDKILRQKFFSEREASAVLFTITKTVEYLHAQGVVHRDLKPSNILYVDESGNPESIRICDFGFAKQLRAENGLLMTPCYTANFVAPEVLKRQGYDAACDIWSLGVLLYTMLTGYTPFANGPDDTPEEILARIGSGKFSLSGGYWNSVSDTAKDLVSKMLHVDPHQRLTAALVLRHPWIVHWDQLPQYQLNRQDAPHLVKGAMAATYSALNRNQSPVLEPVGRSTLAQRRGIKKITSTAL

[4] = test system: Tyrosine-protein kinase ABL1 (Homo sapiens), P00519 [T315I]; test: Inhibition of human truncated ABL T315I mutant expressed in baculovirus assessed as substrate phosphorylation using fluorescence-labelled peptides as substrate at 95 uM after 90 mins by microfluidic peptide phosphorylation assay
[5] = molecular target: T3, Serine/threonine-protein kinase Nek2 (Homo sapiens) (UniProt P51955); test: Inhibition of human full length NEK2 expressed in baculovirus assessed as substrate phosphorylation using fluorescence-labelled peptides as substrate at 1000 uM after 90 mins by microfluidic peptide phosphorylation assay
T3 sequence (whole entry): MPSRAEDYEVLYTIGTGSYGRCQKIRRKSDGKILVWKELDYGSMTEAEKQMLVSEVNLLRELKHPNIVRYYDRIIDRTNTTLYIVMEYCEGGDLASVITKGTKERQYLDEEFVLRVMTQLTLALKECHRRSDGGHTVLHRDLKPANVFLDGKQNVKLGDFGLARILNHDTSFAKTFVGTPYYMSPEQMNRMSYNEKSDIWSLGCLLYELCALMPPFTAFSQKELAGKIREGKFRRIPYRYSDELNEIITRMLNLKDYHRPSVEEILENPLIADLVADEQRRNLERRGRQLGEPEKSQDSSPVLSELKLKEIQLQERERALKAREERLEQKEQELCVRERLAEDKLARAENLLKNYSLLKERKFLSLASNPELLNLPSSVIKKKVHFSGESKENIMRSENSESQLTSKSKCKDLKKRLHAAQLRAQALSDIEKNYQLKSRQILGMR

[6] = molecular target: T4, Protein kinase C epsilon type (Homo sapiens) (UniProt Q02156); test: Inhibition of human truncated PKC epsilon expressed in baculovirus assessed as substrate phosphorylation using fluorescence-labelled peptides as substrate at 1000 uM after 90 mins by microfluidic peptide phosphorylation assay
T4 sequence (whole entry): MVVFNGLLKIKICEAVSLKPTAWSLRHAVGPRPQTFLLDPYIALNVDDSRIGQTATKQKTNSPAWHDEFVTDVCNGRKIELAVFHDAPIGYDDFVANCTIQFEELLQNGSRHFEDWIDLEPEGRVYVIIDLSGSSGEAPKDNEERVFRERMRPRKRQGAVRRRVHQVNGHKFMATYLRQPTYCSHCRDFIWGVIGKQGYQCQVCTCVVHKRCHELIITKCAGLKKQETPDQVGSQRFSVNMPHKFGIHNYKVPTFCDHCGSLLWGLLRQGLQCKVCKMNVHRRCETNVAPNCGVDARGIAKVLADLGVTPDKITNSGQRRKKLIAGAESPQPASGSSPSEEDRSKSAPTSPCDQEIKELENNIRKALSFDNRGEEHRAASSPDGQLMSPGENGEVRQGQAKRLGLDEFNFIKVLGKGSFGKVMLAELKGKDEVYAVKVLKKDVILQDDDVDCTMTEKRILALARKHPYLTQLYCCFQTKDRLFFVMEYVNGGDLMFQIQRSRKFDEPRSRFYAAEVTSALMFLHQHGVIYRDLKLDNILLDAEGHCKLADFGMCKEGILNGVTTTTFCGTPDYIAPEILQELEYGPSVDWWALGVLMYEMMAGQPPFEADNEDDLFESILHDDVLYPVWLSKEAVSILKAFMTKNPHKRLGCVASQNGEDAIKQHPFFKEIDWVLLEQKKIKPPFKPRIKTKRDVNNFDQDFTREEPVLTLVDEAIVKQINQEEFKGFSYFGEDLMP

For `NC1(Cc2ccc(Cl)cc2)CCN(c2ncnc3[nH]ccc23)CC1`, the inhibition [1] was 0% and the inhibition [2] was 0%.

`NCC1CN(c2ncnc3[nH]c4cnccc4c23)CCO1` (stereo unspecified) gave an inhibition [3] of 95.5%.

In the case of `NCCc1ccc(-c2ncnc3[nH]cnc23)cc1`, the inhibition [4] is reported as 53%.

`c1cnc2[nH]ccc2c1` gave an inhibition [5] of 2.5% and an inhibition [6] of 38%.

Source: ChEMBL document CHEMBL3132769, “Fragment growing to retain or alter the selectivity of anchored kinase hinge-binding fragments” (Medchemcomm, 2014)
